Results: patent US12187715B2, “Small molecule activators of Tie-2” (EyePoint Pharmaceuticals, Inc., priority 2019, dated 2025)
Several values for one entry are separate records, joined by “and”; a condition that tells them apart may be missing. Equal entries are not always repeated. Entries after “also recorded” stand apart in the source; their conditions may differ. Marks after values point to notes of the source that are not given here.

How the values were obtained:
[1] = Solubility testing in water by portionwise addition until saturation; assay type: physicochemical; settings: for Amount (g) of compound added until saturation: added portionwise to 10 mL water; for Physical appearance: after portionwise addition to 10 mL water; for Filtration: filtration of the sample attempted after stirring overnight; for solubility at 4 weeks: pH 7, aqueous buffer, 50% dilution with water, adjusted to pH 7, T = 4 weeks; for solubility at 0 weeks: estimated from weight added; for solubility: Conclusions: suspensions stirred overnight, filtered and analyzed by HPLC, initial
Protocol: The solubility of compounds 2-4 was determined by portionwise addition of the compounds to water until saturation was obtained. Water (10 mL) was added to a 20-mL vial. About 100 mg of Compound 2 was added. The suspension was stirred at room temperature for 20 minutes until the contents became a clear solution. Compound 2 (˜100 mg portionwise) was added repeatedly with 30 min stirring time between the additions. Once a suspension was obtained after continuous stirring for 2 hours, the suspension was stirred overnight. The same procedure was used for the suspension preparations of Compound 3 and Compound 4.
After stirring overnight, filtration of each sample was attempted.
An aliquot of the suspension of Compound 2 was filtered through a 0.22 micron inline syringe filter.
About 1 mL of the aqueous solutions prepared above was diluted with water by 50%. The pH of the 50% diluted solutions was adjusted to pH 7 either by 0.1 N HCl or by 0.1 N NaOH. Solubility values for the three compounds in the solutions/suspensions before and after dilution are given in the in TABLE 3.
The solubility of Compounds 2-4 was determined by portionwise addition of the compounds to water until saturation was obtained. After stirring overnight, the suspensions were filtered and analyzed by HPLC. […] The solubility of Compound 3 was >200 mg/mL. The absolute solubility of Compound 3 was not determined because in the course of analysis, the solution of Compound 3 became too viscous to stir. […] The 50% diluted solutions of Compounds 2-4 were not viscous, and the compounds remained in solution for 4 weeks. […] All of the diluted solutions were easily syringable over 4 weeks' time.

[2] = Syringability testing (200 g weight on BD 1-mL syringe plunger, 27 G needle); assay type: physicochemical; settings: for Syringability of the saturated solutions (in words): undiluted solutions
Protocol: Syringability testing was carried out by applying 200 g of weight on top of a BD 1-mL syringe plunger and measuring the time required to expel 1 mL of the saturated solutions through a 27 G needle. The times are recorded in TABLE 4. At T=0, 43 seconds were required to expel 1 mL of Compound 2, while 8 seconds were required to expel 1 mL of Compound 4. In contrast, approximately 5 minutes were required to expel only 0.1 mL of Compound 3, based on the very high viscosity of the solution relative to that of the other two.
Syringability test results of the 50% diluted solutions (TABLE 5) indicated a slight increase in viscosity (syringability test for water was 10 sec). All three solutions remained easily syringable.

phospho-Akt1 (pAkt) = test: Phospho-Akt activation assay in human umbilical vein endothelial cells (Western blot); assay type: cell-based; settings: for Relative potencies for activation of pAkt: HUVECs, 3, 10 and 30 μM
Protocol: The ability of the small molecule analogues as shown in EXAMPLES 1-3 to stimulate production of phospho-Akt1 (pAkt) was tested. Akt plays a critical role in controlling cell survival and apoptosis, and Akt phosphorylation is increased by the activation of Tie-2. Akt activation can be detected by an antibody that recognizes phosphorylation on the serine 473 residue on Akt.
HUVECs were seeded at 500,000 cells/mL in chemically-defined basal media, and supplemented with distinct growth factors (EGM-2). The following growth factors were required for survival and normal phenotypic expression of endothelial characteristics: fetal bovine serum 2%, hydrocortisone, human fibroblast growth factor-B, vascular endothelial growth factor, recombinant insulin growth factor R3, ascorbic acid, human epidermal growth factor, gentamicin sulfate, amphotericin B, and heparin. Cells were derived from one donor, cultivated in 10 cm dishes, and expanded upon reaching 90% confluence. After three passages, the cells were expanded and ready for testing.
The cells were seeded at 25,000 cells/mL in 6-well plates, and covered with 2 mL of complete media. The cells were fed on day 2 of culture with 2 mL of fresh EGM-2 media. 72 hours after plating, the cells were serum starved by rinsing twice with 2 mL of sterile phosphate buffered saline, and then placed at 37° C. for 3 hours in the presence of basal EGM-2 media (1.5 mL/well without growth factors). The serum starvation allowed the cells to become quiescent.
Compounds 2-4 were dissolved in distilled deionized water at the following concentrations: • Compound 2 (Molecular weight: 622.7): 31 mg/ml. • Compound 3 (Molecular weight: 622.7): 26 mg/ml. • Compound 4 (Molecular weight: 636.7): 32 mg/ml.
All compounds were stored at 4° C. […] Stock concentrations of the above molecules were made at a final working concentration of 1 mM. Specific microliter volumes of the working concentration were added to each 6 well plate at the following concentrations: 3, 10, and 30 micromolar (μM). Cells were treated for 30 minutes.
10× cell lysis buffer was diluted fresh with dH2O. The 1× cell lysis buffer contained: 20 mM Tris-HCl (pH 7.5), 150 mM NaCl, 1 mM Na2EDTA, 1 mM EGTA, 1% Triton, 2.5 mM sodium pyrophosphate, 1 mM β-glycerophosphate, 1 mM Na3VO4, 1 μg/ml leupeptin, and 1 mM PMSF. Immediately before use, 1 mM PMSF was prepared by diluting from a stock of 1 M PMSF made up in DMSO. In addition, a 1× concentration of a Halt protease & phosphatase inhibitor cocktail was included. At the end of the 30 minute treatment, the media was discarded from the cell culture wells by shaking out, and the remaining media was aspirated off the wells. Ice-cold lysis buffer was added at 140 μL/well, and the culture was placed on ice or in a cold room for 30 minutes while rocking. Cell lysates were collected using a cell scraper, placed in microfuge tubes, and stored at −80° C. The levels of protein were quantitated using a microtiter plate BCA protein assay.
2× Laemmli sample buffer was added in equal volume to the […] cell lysis buffer, which contained the lysed endothelial cells. The solution was heated at 100° C. for 5 minutes and then sonicated for 10 seconds. After sonication, the lysates were spun by centrifuge at 4° C. for 5 minutes at 17,000 rpm. 70-100 μg of protein calculated from BCA assay prior to addition of 2× Laemmli sample were added per well of an 8% polyacrylamide gel.
Electrophoresis was performed at 150 volts for approximately 90 minutes at room temperature with 1× Laemmli running buffer. The proteins from the gel were transferred to nitrocellulose at 100 volts for 45 minutes on ice.
The nitrocellulose membranes were removed quickly without drying and placed in phosphate buffered saline (pH 7.3) with 1% nonfat dried milk. The membranes were blocked in the milk solution while rocking for 2 hours at room temperature or overnight at 4° C. […]

[3] = water, thermodynamic from solid, Before dilution, T = 0
[4] = water, thermodynamic from solid
[5] = 50% diluted solution, T = 2 week
[6] = 50% diluted solution, T = 3 week
[7] = 50% diluted solution, T = 4 week
[8] = 50% diluted solution, T = 2 day
[9] = 50% diluted solution, T = 3 day
[10] = 50% diluted solution, T = 4 day
[11] = 50% diluted solution, T = 7 day
[12] = saturated (undiluted) solution, T = 0
[13] = saturated (undiluted) solution, T = 1 day
[14] = saturated (undiluted) solution, T = 2 day
[15] = saturated (undiluted) solution, T = 3 day

With `COC(=O)N(C)[C@@H](Cc1ccccc1)C(=O)N[C@@H](Cc1ccc(NS(=O)(=O)[O-])cc1)c1csc(-c2cccs2)n1.[Na+]` [Compound 2, sodium (4-{(S)-2-{(S)-2-[(methoxycarbonyl)(methyl)amino]-3-phenylpropanamido}-2-[2-(thiophen-2-yl)thiazol-4-yl]ethyl}phenyl)sulfamate] the “Physical state of the preparation” value ([1]; 50% dilution, T = 4 weeks) was “(solution) ***”, the “Physical state of the preparation” value ([1]; Before dilution, T = 0) was “(suspension)” and the “Amount (g) of compound added until saturation” value ([1]; room temperature) was 2.53 g and 2.528 g. For the same compound, the Physical appearance [1] was “formed a suspension; also recorded: Precipitate”, the Filtration [1] was “difficult and Yes” and the “Concentration in clear filtrate as share of the concentration of the initial, supersaturated solution” value ([1]; suspension filtered through 0.22 micron filter after 5 weeks) was 25%. It also gave a solubility at 4 weeks ([1]; water) of roughly 125 mg/mL, a solubility at 0 weeks [1, 3] of roughly 250 mg/mL and a solubility at 5 weeks ([1]; water, thermodynamic from solid, Before dilution, T = 5 weeks, room temperature) of 49.5 mg/mL. The solubility [1, 4] was roughly 200 mg/mL, the “Syringability: time to expel 1 mL” value [2, 5] was 14 s and the “Syringability: time to expel 1 mL” value [2, 6] was 11 s. For the same compound, the “Syringability: time to expel 1 mL” value [2, 7] was 11 s, the “Syringability: time to expel 1 mL” value [2, 8] was 10 s and the “Syringability: time to expel 1 mL” value [2, 9] was 15 s. The “Syringability: time to expel 1 mL” value [2, 10] was 18 s, the “Syringability: time to expel 1 mL” value [2, 11] was 15 s and the “Syringability: time to expel 1 mL” value [2, 12] was 43 s. For the same compound, the “Syringability: time to expel 1 mL” value [2, 13] was 52 s, the “Syringability: time to expel 1 mL” value [2, 14] was 65 s and the “Syringability: time to expel 1 mL” value [2, 15] was 58 s. For the same compound, the “Syringability of the saturated solutions (in words)” value [2] was “syringable”, the “pAkt signal above control” value (phospho-Akt1 (pAkt); HUVECs, 30 μM, 30 minutes treatment) was 300% and the “Relative potencies for activation of pAkt” value (phospho-Akt1 (pAkt)) was “Compound 2>Compound 4>Compound 3”. The “Levels of pAkt (in words)” value (phospho-Akt1 (pAkt); HUVECs, sets statement at 30 μM) was “Noticeable and dose-dependent”.
In the case of `COC(=O)N(C)[C@@H](Cc1ccccc1)C(=O)N(C)[C@@H](Cc1ccc(NS(=O)(=O)[O-])cc1)c1csc(-c2cccs2)n1.[Na+]` [Compound 4, sodium (4-{(S)-2-{(S)-2-[(methoxycarbonyl)(methyl)amino]-N-methyl-3-phenylpropanamido}-2-[2-(thiophen-2-yl)thiazol-4-yl]ethyl}phenyl)sulfamate], the “Physical state of the preparation” value ([1]; 50% dilution, T = 4 weeks) is reported as “(solution)”, the “Physical state of the preparation” value ([1]; Before dilution, T = 0) is reported as “(solution)” and the “Solubility value in water” value ([1]; Before dilution, T = 5 weeks, room temperature) is reported as “No change*”. For the same compound, the “Amount (g) of compound added until saturation” value ([1]; room temperature) was 0.624 g, the Physical appearance [1] was “formed a suspension; also recorded: Precipitate” and the Filtration [1] was “proceeded readily and Yes”. For the same compound, the solubility at 4 weeks ([1]; water) was 31 mg/mL, the solubility at 0 weeks [1, 3] was 62 mg/mL and the solubility [1, 4] was roughly 58 mg/mL. The “Syringability: time to expel 1 mL” value [2, 5] was 13 s, the “Syringability: time to expel 1 mL” value [2, 6] was 13 s and the “Syringability: time to expel 1 mL” value [2, 7] was 14 s. The “Syringability: time to expel 1 mL” value [2, 8] was 12 s, the “Syringability: time to expel 1 mL” value [2, 9] was 14 s and the “Syringability: time to expel 1 mL” value [2, 10] was 15 s. The “Syringability: time to expel 1 mL” value [2, 11] was 12 s, the “Syringability: time to expel 1 mL” value [2, 12] was 8 s and the “Syringability: time to expel 1 mL” value ([2]; saturated (undiluted) solution, T = 2 week) was 13 s. For the same compound, the “Syringability: time to expel 1 mL” value ([2]; saturated (undiluted) solution, T = 3 week) was 12 s, the “Syringability: time to expel 1 mL” value ([2]; saturated (undiluted) solution, T = 4 week) was 13 s and the “Syringability: time to expel 1 mL” value [2, 13] was 12 s. For the same compound, the “Syringability: time to expel 1 mL” value [2, 14] was 15 s, the “Syringability: time to expel 1 mL” value [2, 15] was 12 s and the “Syringability: time to expel 1 mL” value ([2]; saturated (undiluted) solution, T = 4 day) was 13 s. For the same compound, the “Syringability: time to expel 1 mL” value ([2]; saturated (undiluted) solution, T = 5 day) was 14 s, the “Syringability: time to expel 1 mL” value ([2]; saturated (undiluted) solution, T = 6 day) was 14 s and the “Syringability of the saturated solutions (in words)” value [2] was “syringable”. The “Relative potencies for activation of pAkt” value (phospho-Akt1 (pAkt)) was “Compound 2>Compound 4>Compound 3”.
